The experiment addresses T1, SoArsAB (Sporomusa ovata, UniProt F6MZ55+F6MZ56).
T1 sequence (F6MZ55 5-350 limits assumed): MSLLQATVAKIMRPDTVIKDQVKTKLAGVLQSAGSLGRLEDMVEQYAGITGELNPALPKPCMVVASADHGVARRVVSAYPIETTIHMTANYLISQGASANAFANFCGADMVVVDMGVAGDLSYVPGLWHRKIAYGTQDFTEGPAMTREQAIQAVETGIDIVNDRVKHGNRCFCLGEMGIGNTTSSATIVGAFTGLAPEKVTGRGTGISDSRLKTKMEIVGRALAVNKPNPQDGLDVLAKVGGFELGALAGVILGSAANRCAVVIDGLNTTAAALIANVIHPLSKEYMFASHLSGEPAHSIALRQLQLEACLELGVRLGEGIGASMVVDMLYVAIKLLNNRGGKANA
T1 sequence (F6MZ56 1-350): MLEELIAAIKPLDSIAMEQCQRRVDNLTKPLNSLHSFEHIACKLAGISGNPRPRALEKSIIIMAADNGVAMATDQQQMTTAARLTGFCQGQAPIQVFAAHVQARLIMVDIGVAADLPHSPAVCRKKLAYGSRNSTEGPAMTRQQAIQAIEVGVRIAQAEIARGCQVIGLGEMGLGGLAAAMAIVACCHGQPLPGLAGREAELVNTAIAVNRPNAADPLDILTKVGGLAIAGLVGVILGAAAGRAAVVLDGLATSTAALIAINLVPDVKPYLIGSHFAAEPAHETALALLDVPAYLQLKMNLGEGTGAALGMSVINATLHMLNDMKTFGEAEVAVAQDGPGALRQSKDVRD
The experiment is described as follows: HPLC product formation. Particulars: pH 10, 37 °C, 6 h. Format: biochemical.

For the molecule `Cc1ccc(O)cc1` [p-cresol], the HPLC product formation result (3 mM NaMN) is “using SeCobT^WT, SeCobT^S80Y,Q88M,L175M or SoArsAB with NaMN and p-cresol”. Regarding `O=C([O-])c1ccc[n+]([C@@H]2O[C@H](COP(=O)(O)O)[C@@H](O)[C@H]2O)c1` [NaMN, nicotinate mononucleotide], the HPLC product formation result (3 mM p-cresol) is “using SeCobT^WT, SeCobT^S80Y,Q88M,L175M or SoArsAB with NaMN and p-cresol”.

Source of the values: publication PMC3900240 (Biochimica et biophysica acta, 2013).
